Results reported in PubChem BioAssay (NCI).
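Five concentrations, 48 hours, 96-well plates. At the GI50, growth is halved. Definition used: TGI = concentration required for complete inhibition of growth.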

Columns and labels:
Assay in all cases: growth of human tumour cells (NCI), 48 h
A549 NSCLC = tested on: A549 NSCLC
SNB-75 CNS = tested on: SNB-75 CNS
SK-MEL-28 melanoma = tested on: SK-MEL-28 melanoma
HCT-15 colon = tested on: HCT-15 colon
MCF7 breast = tested on: MCF7 breast
MDA-MB-231 breast = tested on: MDA-MB-231 breast
BT-549 breast = tested on: BT-549 breast
COLO 205 colon = tested on: COLO 205 colon
CCRF-CEM leukemia = tested on: CCRF-CEM leukemia
UACC-62 melanoma = tested on: UACC-62 melanoma
HT29 colon = tested on: HT29 colon
SR leukemia = tested on: SR leukemia
SNB-19 CNS = tested on: SNB-19 CNS
NCI-H23 lung = tested on: NCI-H23 lung
DU-145 prostate = tested on: DU-145 prostate
NCI/ADR-RES ovarian = tested on: NCI/ADR-RES ovarian
OVCAR-8 ovarian = tested on: OVCAR-8 ovarian
MALME-3M melanoma = tested on: MALME-3M melanoma
SN12C renal = tested on: SN12C renal
NCI-H522 lung = tested on: NCI-H522 lung
HOP-92 NSCLC = tested on: HOP-92 NSCLC
SF-295 CNS = tested on: SF-295 CNS
SF-268 CNS = tested on: SF-268 CNS
HOP-62 NSCLC = tested on: HOP-62 NSCLC
SK-MEL-2 melanoma = tested on: SK-MEL-2 melanoma
M14 melanoma = tested on: M14 melanoma
MDA-MB-435 = tested on: MDA-MB-435
CAKI-1 renal = tested on: CAKI-1 renal
T-47D breast = tested on: T-47D breast
KM12 colon = tested on: KM12 colon
PC-3 prostate = tested on: PC-3 prostate
K-562 leukemia = tested on: K-562 leukemia
IGROV1 ovarian = tested on: IGROV1 ovarian
ACHN renal = tested on: ACHN renal
SK-OV-3 ovarian = tested on: SK-OV-3 ovarian
NCI-H460 lung = tested on: NCI-H460 lung
UO-31 renal = tested on: UO-31 renal
RPMI-8226 leukemia = tested on: RPMI-8226 leukemia
SW-620 colon = tested on: SW-620 colon
SK-MEL-5 melanoma = tested on: SK-MEL-5 melanoma
U251 CNS = tested on: U251 CNS
SF-539 CNS = tested on: SF-539 CNS
OVCAR-3 ovarian = tested on: OVCAR-3 ovarian
OVCAR-4 ovarian = tested on: OVCAR-4 ovarian
NCI-H226 lung = tested on: NCI-H226 lung
786-0 renal = tested on: 786-0 renal
HS 578T breast = tested on: HS 578T breast
MOLT-4 leukemia = tested on: MOLT-4 leukemia
HL-60(TB) leukemia = tested on: HL-60(TB) leukemia
HCC-2998 colon = tested on: HCC-2998 colon
RXF 393 renal = tested on: RXF 393 renal
OVCAR-5 ovarian = tested on: OVCAR-5 ovarian
TK-10 renal = tested on: TK-10 renal
UACC-257 melanoma = tested on: UACC-257 melanoma
HCT-116 colon = tested on: HCT-116 colon
A498 renal = tested on: A498 renal
LOX IMVI melanoma = tested on: LOX IMVI melanoma
EKVX NSCLC = tested on: EKVX NSCLC

## Cc1[nH]ccc2cc3nc4ccccc4c3cc12
A549 NSCLC
  GI50: 2.5 µM
  TGI: 12.2 µM
SNB-75 CNS
  GI50: 5.52 µM
  TGI: 18.9 µM
SK-MEL-28 melanoma
  GI50: 10.7 µM
  TGI: 23.9 µM
HCT-15 colon
  GI50: 1.84 µM
  TGI: 5.9 µM
MCF7 breast
  GI50: 1.34 µM
  TGI: 5.63 µM
MDA-MB-231 breast
  GI50: 2 µM
  TGI: 8.24 µM
BT-549 breast
  GI50: 2.74 µM
  TGI: 13.3 µM
COLO 205 colon
  GI50: 2.35 µM
  TGI: 7.15 µM
CCRF-CEM leukemia
  GI50: 1.5 µM
  TGI: 10 µM
UACC-62 melanoma
  GI50: 3.52 µM
  TGI: 12.3 µM
HT29 colon
  GI50: 1.16 µM
  TGI: 3.55 µM
SR leukemia
  GI50: 1.13 µM
  TGI: 3.53 µM
SNB-19 CNS
  GI50: 5.65 µM
  TGI: 19.6 µM
NCI-H23 lung
  GI50: 2.55 µM
  TGI: 14.5 µM
DU-145 prostate
  GI50: 2.18 µM
  TGI: 5.83 µM
NCI/ADR-RES ovarian
  GI50: 1.8 µM
  TGI: 11.9 µM
OVCAR-8 ovarian
  GI50: 1.72 µM
  TGI: 11.7 µM
MALME-3M melanoma
  GI50: 2.27 µM
  TGI: 7.94 µM
SN12C renal
  GI50: 2.55 µM
  TGI: 12.5 µM
NCI-H522 lung
  GI50: 2.22 µM
  TGI: 9.72 µM
HOP-92 NSCLC
  GI50: 1.3 µM
  TGI: 5.64 µM
SF-295 CNS
  GI50: 1.96 µM
  TGI: 6.79 µM
SF-268 CNS
  GI50: 2.97 µM
  TGI: 14.2 µM
HOP-62 NSCLC
  GI50: 2.79 µM
  TGI: 12.8 µM
SK-MEL-2 melanoma
  GI50: 5.17 µM
  TGI: 16.5 µM
M14 melanoma
  GI50: 2.47 µM
  TGI: 11.1 µM
MDA-MB-435
  GI50: 2.89 µM
  TGI: 12.7 µM
CAKI-1 renal
  GI50: 2.38 µM
  TGI: 10.8 µM
T-47D breast
  GI50: 3.62 µM
  TGI: 18.9 µM
KM12 colon
  GI50: 2.45 µM
  TGI: 11.8 µM
PC-3 prostate
  GI50: 2.46 µM
  TGI: 11.7 µM
K-562 leukemia
  GI50: 2.8 µM
  TGI: 10.4 µM
IGROV1 ovarian
  GI50: 3.65 µM
  TGI: 15.2 µM
ACHN renal
  GI50: 0.963 µM
  TGI: 10.6 µM
SK-OV-3 ovarian
  GI50: 5.42 µM
  TGI: 18.1 µM
NCI-H460 lung
  GI50: 1.39 µM
  TGI: 3.52 µM
UO-31 renal
  GI50: 2.02 µM
  TGI: 8.47 µM
RPMI-8226 leukemia
  GI50: 1.53 µM
  TGI: 3.87 µM
SW-620 colon
  GI50: 1.07 µM
  TGI: 6.9 µM
SK-MEL-5 melanoma
  GI50: 3.28 µM
  TGI: 13.6 µM
U251 CNS
  GI50: 2.82 µM
  TGI: 12.4 µM
SF-539 CNS
  GI50: 3.07 µM
  TGI: 12.6 µM
OVCAR-3 ovarian
  GI50: 3.04 µM
  TGI: 10.7 µM
OVCAR-4 ovarian
  GI50: 2.65 µM
  TGI: 10.7 µM
NCI-H226 lung
  GI50: 2.94 µM
  TGI: 12.6 µM
786-0 renal
  GI50: 3.33 µM
  TGI: 13.8 µM
HS 578T breast
  GI50: 3.26 µM
  TGI: 18 µM
MOLT-4 leukemia
  GI50: 0.723 µM
  TGI: 3.13 µM
HL-60(TB) leukemia
  GI50: 3.48 µM
  TGI: 14.9 µM
HCC-2998 colon
  GI50: 2.85 µM
  TGI: 13.3 µM
RXF 393 renal
  GI50: 1.74 µM
  TGI: 3.91 µM
OVCAR-5 ovarian
  GI50: 3.35 µM
  TGI: 11.9 µM
TK-10 renal
  GI50: 4.47 µM
  TGI: 12.9 µM
UACC-257 melanoma
  GI50: 3.35 µM
  TGI: 12.8 µM
HCT-116 colon
  GI50: 0.667 µM
  TGI: 2.38 µM
A498 renal
  GI50: 0.421 µM
  TGI: 2.15 µM

## COc1ccc(Cn2cc3c(c2-c2ccccc2)CCc2cncnc2-3)cc1
A549 NSCLC
  GI50: 3.55 µM
  TGI: 14.1 µM
SNB-75 CNS
  GI50: 3.98 µM
  TGI: 13.5 µM
SK-MEL-28 melanoma
  GI50: 8.71 µM
  TGI: 21.6 µM
HCT-15 colon
  GI50: 4.3 µM
  TGI: 16.5 µM
LOX IMVI melanoma
  GI50: 6.81 µM
  TGI: 19.9 µM
MCF7 breast
  GI50: 4.66 µM
  TGI: 18.9 µM
MDA-MB-231 breast
  GI50: 5.12 µM
  TGI: 18.3 µM
BT-549 breast
  GI50: 4.1 µM
  TGI: 14.7 µM
COLO 205 colon
  GI50: 4.44 µM
  TGI: 17.2 µM
CCRF-CEM leukemia
  GI50: 3.99 µM
  TGI: 18.3 µM
UACC-62 melanoma
  GI50: 3.47 µM
  TGI: 16.5 µM
HT29 colon
  GI50: 3.9 µM
  TGI: 12.9 µM
SR leukemia
  GI50: 1.46 µM
  TGI: 6.7 µM
SNB-19 CNS
  GI50: 10.2 µM
  TGI: 25 µM
NCI-H23 lung
  GI50: 10.6 µM
  TGI: 39.3 µM
DU-145 prostate
  GI50: 14.2 µM
  TGI: 33.7 µM
EKVX NSCLC
  GI50: 4.5 µM
  TGI: 29.3 µM
NCI/ADR-RES ovarian
  GI50: 3.99 µM
  TGI: 19.8 µM
OVCAR-8 ovarian
  GI50: 7.76 µM
  TGI: 23.7 µM
MALME-3M melanoma
  GI50: 3.18 µM
  TGI: 12.8 µM
SN12C renal
  GI50: 5.85 µM
  TGI: 20.9 µM
NCI-H522 lung
  GI50: 5.05 µM
  TGI: 21 µM
HOP-92 NSCLC
  GI50: 10.8 µM
  TGI: 28.5 µM
SF-295 CNS
  GI50: 4.02 µM
  TGI: 17.8 µM
SF-268 CNS
  GI50: 9.63 µM
  TGI: 22.2 µM
HOP-62 NSCLC
  GI50: 12 µM
  TGI: 31.3 µM
M14 melanoma
  GI50: 4.2 µM
  TGI: 18.2 µM
MDA-MB-435
  GI50: 2.49 µM
  TGI: 11.8 µM
CAKI-1 renal
  GI50: 3.55 µM
  TGI: 17.5 µM
T-47D breast
  GI50: 3.47 µM
  TGI: 27 µM
KM12 colon
  GI50: 3.57 µM
  TGI: 13.5 µM
PC-3 prostate
  GI50: 8.71 µM
  TGI: 31.1 µM
K-562 leukemia
  GI50: 2.75 µM
  TGI: 11.3 µM
IGROV1 ovarian
  GI50: 5.8 µM
  TGI: 23.9 µM
ACHN renal
  GI50: 11.3 µM
  TGI: 35.8 µM
SK-OV-3 ovarian
  GI50: 9.04 µM
  TGI: 31.2 µM
NCI-H460 lung
  GI50: 3.48 µM
  TGI: 13.1 µM
UO-31 renal
  GI50: 10.3 µM
  TGI: 24.2 µM
RPMI-8226 leukemia
  GI50: 2.69 µM
  TGI: 8.62 µM
SW-620 colon
  GI50: 3.65 µM
  TGI: 13.9 µM
SK-MEL-5 melanoma
  GI50: 3.72 µM
  TGI: 14.2 µM
U251 CNS
  GI50: 5.47 µM
  TGI: 18 µM
SF-539 CNS
  GI50: 6 µM
  TGI: 18.7 µM
OVCAR-3 ovarian
  GI50: 3.65 µM
  TGI: 12.5 µM
OVCAR-4 ovarian
  GI50: 10.2 µM
  TGI: 33.7 µM
NCI-H226 lung
  GI50: 11.5 µM
  TGI: 26.7 µM
786-0 renal
  GI50: 10.1 µM
  TGI: 38.5 µM
HS 578T breast
  GI50: 1.58 µM
  TGI: 6.51 µM
MOLT-4 leukemia
  GI50: 2.81 µM
  TGI: 11.1 µM
HL-60(TB) leukemia
  GI50: 2.04 µM
  TGI: 5.7 µM
HCC-2998 colon
  GI50: 11.9 µM
  TGI: 25.5 µM
RXF 393 renal
  GI50: 3.56 µM
  TGI: 9.82 µM
OVCAR-5 ovarian
  GI50: 18.4 µM
  TGI: 37.7 µM
TK-10 renal
  GI50: 8.09 µM
  TGI: 26.6 µM
UACC-257 melanoma
  GI50: 4.03 µM
  TGI: 16.7 µM
HCT-116 colon
  GI50: 3.65 µM
  TGI: 14.9 µM
A498 renal
  GI50: 4.87 µM
  TGI: 17.4 µM
